# Entries after “also recorded” stand apart in the source; their conditions may differ. No end group written: not given here.
# Columns and labels:
# [1] = system: indicator strains from niches of the human microbiome (Table 11); assay: 96-well antimicrobial profiling, residual growth (OD600); assay type: cell-based; conditions: for activity against strains of the alimentary tract: Bifidobacterium adolescenits, Bifidobacterium longum, Sellimonas intestinalis, Streptococcus dysgalactiae; for antimicrobial activity (fingerprint, residual growth): set amount of SPE purified RiPP, large panel of indicator strains
# Lactobacillus crispatus = assay: Antimicrobial activity against Lactobacillus crispatus; assay type: cell-based; conditions: FIG. 57D
# [2] = system: methicillin-resistant Staphylococcus aureus (MRSA), vancomycin-resistant Enterococcus faecium (VRE), Streptococcus pneumoniae; assay: Dilution series, dose-dependent killing of MDR clinical isolates; assay type: cell-based; conditions: for dose-dependent antimicrobial activity against at least one strain: 2-fold serial dilution of SPE-purified peptide from liter scale fermentation
# [3] = system: human microbiome-associated strains (Staphylococcus aureus, Streptococcus infantarius, Streptococcus dysgalactiae, Pediococcus acidilactici …); assay type: cell-based; conditions: microtiter-purified RiPPs; initial test set of indicator strains
# Streptococcus pneumoniae = assay: Dilution series against Streptococcus pneumoniae; assay type: cell-based; conditions: serial dilution of SPE-purified peptide
# their target = conditions: read-out: binding to their target; cited from earlier work
# [4] = biological target: SARS-CoV-2 Spike RBD (residues 328-533) as bait (Severe acute respiratory syndrome coronavirus 2, UniProt P0DTC2)
molecule,measurement,setting,value
GWQTAFRLTMQGRCGGVFTLSYECATPHVSCG [AMK-916],activity against strains of the alimentary tract,[1],pronounced activity
same,"antimicrobial activity (fingerprint, residual growth)",[1],active
GHVELMNADKVKCKSTSTTKSCSSTSTTSVD [AMK-720],"antimicrobial activity (fingerprint, residual growth)",[1],exceptionally broad antimicrobial activity
GGKNGVFKTISHECHLNTWAFLATCCS [AMK-691],"antimicrobial activity (fingerprint, residual growth)",[1],active
same,activity against Lactobacillus crispatus,Lactobacillus crispatus,demonstrated activity
same,dose-dependent antimicrobial activity against at least one strain,[2],Dose-dependent antimicrobial activity
same,zones of inhibition,[3],varying zones of inhibition
GGWFTAIQLTLAGRCGNWFTGSFECTSNNVKCG [AMK-287],"activity against other Streptococci (strains with significant activity, spectrum)",[1]; 5 Streptococcal strains of the panel,narrow spectrum of activity
same,activity against strains of the alimentary tract,[1],pronounced activity
same,"antimicrobial activity (fingerprint, residual growth)",[1],active
same,dose-dependent antimicrobial activity against at least one strain,[2],Dose-dependent antimicrobial activity
same,zones of inhibition,[3],varying zones of inhibition
same,activity against Streptococcus pneumoniae,Streptococcus pneumoniae,pronounced activity
GSRWWQGVLPTVSHECRMNSFQHIFTCC [AMK-687],"antimicrobial activity (fingerprint, residual growth)",[1],active; also recorded: remarkable antimicrobial activity
same,activity against Lactobacillus crispatus,Lactobacillus crispatus,even more pronounced activity
same,"antimicrobial activity against MDR clinical isolates (potency, spectrum, in words)",[2],particularly potent and broad-spectrum antimicrobial activity against all four isolates
same,dose-dependent antimicrobial activity against at least one strain,[2],Dose-dependent antimicrobial activity
same,zones of inhibition,[3],varying zones of inhibition
GWLWGSYRDVYGVWHGPRTNFNGAGGSSEWRLVPR [AMK-1009],"antimicrobial activity (fingerprint, residual growth)",[1],active
GLIYGKYRDVLSGARLVTPPEVALRLVPR [AMK-917],"antimicrobial activity (fingerprint, residual growth)",[1],active
GGGWYTAFKLTLAGRCGLCFTCSYECTSNNVHC [AMK-286],activity against strains of the alimentary tract,[1],pronounced activity
same,"antimicrobial activity (fingerprint, residual growth)",[1],active
"microcin J25 (GGAGHVPEYFVGIGTPISFYG; ends and bridges not checked; UniProt Q9X2V7 38-58, looked up)",Kd,their target,2000 nM
GWYWGNRRDIYGALRYANKRLVPR [AMK-1010],"antimicrobial activity (fingerprint, residual growth)",[1],active
GGDGVMHTLTHECHMNTWQFLLTCC [AMK-417],"antimicrobial activity (fingerprint, residual growth)",[1],active
same,dose-dependent antimicrobial activity against at least one strain,[2],Dose-dependent antimicrobial activity
CN[C@H](CC(C)C)C(=O)N[C@H]1C(=O)N[C@@H](CC(N)=O)C(=O)N[C@H]2C(=O)N[C@H]3C(=O)N[C@H](C(=O)N[C@H](C(=O)O)c4cc(O)cc(O)c4-c4cc3ccc4O)[C@H](O)c3ccc(c(Cl)c3)Oc3cc2cc(c3O[C@@H]2O[C@H](CO)[C@@H](O)[C@H](O)[C@H]2O[C@H]2C[C@](C)(N)[C@H](O)[C@H](C)O2)Oc2ccc(cc2Cl)[C@H]1O [vancomycin],Kd,their target,~1000 nM
VCKYGEWCEIVEI [VCKYGEWCEIVEI (SEQ ID NO: 24)],specificity for the Spike RBD as bait over Mdm2*,[4],14 fold
same,transcriptional output of circuit,[4],strong transcriptional output

# From patent US20230227508A1, “SPLIT INTEIN-BASED SELECTION FOR PEPTIDE BINDERS” (priority 2020, published 2023)
